Patent US12037344B2, “NLRP3 modulators” (INNATE TUMOR IMMUNITY, INC., priority 2018, dated 2024)
Read-outs that look alike come from different tables or passages of the source.

Assays:
[1] = test system: THP-1 cells; assay: Measurement of IL-1β production, hTRF protocol (second alternative procedure), THP-1 cells; format: cell-based, human; details: Homo sapiens, THP-1, IL-1β production, read-out: NLRP3 hILIB EC50
Outline: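 Compounds, dilution series starting at a final 10 μM, were incubated 2 hours at 37° C with PMA-differentiated THP-1 cells (50 ng/ml overnight; 50,000 cells/well, 2% FBS RPMI). Released IL-1β quantified in supernatant by hTRF kit with 1:40 antibody dilution, 4° C overnight, 665/615 nm ratio.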

[2] = molecular target: T1, TLR7 (Homo sapiens, UniProt Q9NYK1); assay: In vitro human TLR7 binding reporter assay (HEK-Blue, NF-kB/AP1-inducible SEAP); format: cell-based; details: read-out: TLR7 Agonist EC50
T1 construct: human HEK-Blue cells co-expressing a TLR7 or TLR8 gene
T1 sequence (Q9NYK1 27-1049): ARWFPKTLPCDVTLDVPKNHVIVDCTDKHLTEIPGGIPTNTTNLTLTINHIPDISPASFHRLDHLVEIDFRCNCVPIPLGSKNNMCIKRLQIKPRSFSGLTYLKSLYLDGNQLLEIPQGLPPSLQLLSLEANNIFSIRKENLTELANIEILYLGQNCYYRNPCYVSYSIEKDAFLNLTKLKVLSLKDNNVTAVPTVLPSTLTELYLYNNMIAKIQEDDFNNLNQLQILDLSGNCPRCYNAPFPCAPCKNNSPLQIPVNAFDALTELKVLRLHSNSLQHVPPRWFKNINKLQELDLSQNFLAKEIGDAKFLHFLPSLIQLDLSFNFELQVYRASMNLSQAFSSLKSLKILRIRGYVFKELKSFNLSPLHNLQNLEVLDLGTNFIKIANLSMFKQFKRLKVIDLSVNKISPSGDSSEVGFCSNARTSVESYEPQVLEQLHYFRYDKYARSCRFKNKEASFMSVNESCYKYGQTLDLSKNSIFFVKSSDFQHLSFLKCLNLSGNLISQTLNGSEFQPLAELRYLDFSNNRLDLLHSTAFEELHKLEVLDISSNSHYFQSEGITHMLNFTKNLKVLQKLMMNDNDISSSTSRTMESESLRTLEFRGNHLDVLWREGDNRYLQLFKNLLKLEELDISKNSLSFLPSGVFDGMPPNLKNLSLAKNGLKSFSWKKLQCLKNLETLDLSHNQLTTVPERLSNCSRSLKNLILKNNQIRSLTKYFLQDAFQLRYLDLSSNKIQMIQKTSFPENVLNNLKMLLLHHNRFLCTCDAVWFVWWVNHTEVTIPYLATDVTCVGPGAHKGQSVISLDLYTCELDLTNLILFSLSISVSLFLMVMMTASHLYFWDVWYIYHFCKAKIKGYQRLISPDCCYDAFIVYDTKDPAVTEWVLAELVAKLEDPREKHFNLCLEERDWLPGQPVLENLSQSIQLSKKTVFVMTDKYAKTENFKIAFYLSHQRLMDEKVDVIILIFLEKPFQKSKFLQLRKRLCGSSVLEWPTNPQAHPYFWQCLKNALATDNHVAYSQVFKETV
Outline: (§1)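 Cells are seeded and grown for 24 h. Compounds or DMSO are then added and incubated 18 h at 37 °C. Quanti-Blue is added, and SEAP is read after thirty minutes. EC50 values are normalized, with RLU from 50 μM reference standard setting 100% Ymax.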

[3] = molecular target: T2, TLR8 (Homo sapiens, UniProt Q9NR97); assay: In vitro human TLR8 binding reporter assay (HEK-Blue, NF-kB/AP1-inducible SEAP); format: cell-based; details: read-out: TLR8 Agonist EC50
T2 construct: human HEK-Blue cells co-expressing a TLR7 or TLR8 gene
T2 sequence (Q9NR97 27-1041): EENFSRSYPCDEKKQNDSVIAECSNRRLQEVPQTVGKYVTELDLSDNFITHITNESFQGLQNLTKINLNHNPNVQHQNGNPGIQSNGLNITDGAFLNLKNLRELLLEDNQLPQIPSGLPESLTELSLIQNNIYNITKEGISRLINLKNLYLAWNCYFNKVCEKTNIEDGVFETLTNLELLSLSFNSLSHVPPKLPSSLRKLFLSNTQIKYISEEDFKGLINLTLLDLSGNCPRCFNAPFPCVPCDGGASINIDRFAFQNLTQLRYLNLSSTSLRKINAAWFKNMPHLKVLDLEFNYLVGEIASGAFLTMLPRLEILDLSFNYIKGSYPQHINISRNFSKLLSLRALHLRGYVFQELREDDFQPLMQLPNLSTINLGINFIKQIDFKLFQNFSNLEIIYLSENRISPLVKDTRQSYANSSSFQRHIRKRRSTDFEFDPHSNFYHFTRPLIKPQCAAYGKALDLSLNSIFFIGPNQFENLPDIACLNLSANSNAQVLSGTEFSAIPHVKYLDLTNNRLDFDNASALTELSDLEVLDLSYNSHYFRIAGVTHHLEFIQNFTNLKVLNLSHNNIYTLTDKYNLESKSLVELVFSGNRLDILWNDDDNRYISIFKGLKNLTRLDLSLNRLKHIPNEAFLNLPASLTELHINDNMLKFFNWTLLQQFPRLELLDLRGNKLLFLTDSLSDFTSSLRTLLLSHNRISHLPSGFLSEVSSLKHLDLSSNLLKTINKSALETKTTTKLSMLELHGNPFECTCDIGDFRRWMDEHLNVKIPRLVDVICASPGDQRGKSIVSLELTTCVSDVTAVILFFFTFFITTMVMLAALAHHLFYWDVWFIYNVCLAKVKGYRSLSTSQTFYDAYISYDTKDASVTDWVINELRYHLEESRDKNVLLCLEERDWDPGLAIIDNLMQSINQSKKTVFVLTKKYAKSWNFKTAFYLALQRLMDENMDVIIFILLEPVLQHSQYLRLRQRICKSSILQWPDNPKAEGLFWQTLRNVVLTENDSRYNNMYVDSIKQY
Outline: as §1

Compound | EC50 ([1]; human cells) [µM] | EC50 ([2]; activity range) [µM] | EC50 ([3]; activity range) [µM] | EC50 ([1]; human) [µM] | EC50 ([2]; activity range class) [µM] | EC50 ([3]; activity range class) [µM]
CC(CC(=O)NCCO)n1cc2c(N)nc3cc(-c4cc[nH]n4)ccc3c2n1 (stereo not drawn) [Example 620] | 28.6 | > 100 | > 100 | – | – | –
CCN(CC)CCCc1nc2c(N)nc3cc(-c4ccn[nH]4)ccc3c2s1 [Example 144, 2-[3-(diethylamino)propyl]-7-(1H-pyrazol-5-yl)-[1,3]thiazolo[4,5-c]quinolin-4-amine] | – | – | – | 0.66 | > 100 | > 100
Nc1nc2cc(-c3cc[nH]n3)ccc2c2c1cnn2CCCO [Example 216] | – | – | – | 3.04 | > 100 | > 100
Nc1nc2cc(-c3cc[nH]n3)ccc2c2[nH]c(CNC(=O)C3CCCO3)cc12 (stereo not drawn) [Example 412] | 1.87 | > 100 | > 100 | – | – | –
Nc1nc2cc(-c3cc[nH]n3)ccc2c2c1cnn2CC(O)CO (stereo not drawn) [Example 235] | – | – | – | 12.5 | > 100 | > 100
CC(C)(F)C(=O)NCCn1nc2c(N)nc3cc(-c4ccn[nH]4)ccc3c2n1 [Example 157, N-{2-[4-amino-7-(1H-pyrazol-5-yl)-2H-[1,2,3]triazolo[4,5-c]quinolin-2-yl]ethyl}-2-fluoro-2-methylpropanamide] | – | – | – | 5.17 | > 100 | > 100
Cc1nnc(Cn2ncc3c(N)nc4cc(-c5cc[nH]n5)ccc4c32)o1 [Example 244] | – | – | – | 1.8 | > 100 | > 100
Nc1nc2cc(-c3ccn[nH]3)ccc2c2nn(CC3(C(=O)NCC(F)F)CC3)cc12 [Example 606] | 2.46 | > 100 | > 100 | – | – | –
Nc1nc2cc(-c3cc[nH]n3)ccc2c2nn(Cc3cc(CO)no3)cc12 [Example 408] | 1.94 | > 100 | > 100 | – | – | –
Nc1nc2cc(-n3cccn3)ccc2c2cn(Cc3ccccn3)nc12 [Example 14] | – | – | – | 1.68 | 20 to 100 | 20 to 100
Nc1nc2cc(-n3cccn3)ccc2c2nn(C[C@@H](O)CO)cc12 [Example 389] | – | – | – | 0.91 | > 100 | > 100
N#C[C@H]1CCN(C(=O)CCn2cc3c(N)nc4cc(-c5cc[nH]n5)ccc4c3n2)C1 [Example 516] | 9.67 | > 100 | > 100 | – | – | –
CO[C@H]1CCN(Cc2cc3c(N)nc4cc(-c5cc[nH]n5)ccc4c3[nH]2)C1 [Example 472] | 0.23 | > 100 | > 100 | – | – | –
CC(N)Cn1cc2c(N)nc3cc(-c4ccn[nH]4)ccc3c2n1 (stereo not drawn) [Example 257] | – | – | – | 0.86 | > 100 | > 100
Nc1nc2cc(-c3ccn[nH]3)ccc2c2cn(CCO)cc12 [Example 455] | 0.22 | > 100 | > 100 | – | – | –
Nc1nc2cc(-c3cc[nH]n3)ccc2c2nn(C3COCC3O)cc12 (single isomer, unassigned) [Example 324] | – | – | – | 1.57 | > 100 | > 100
CC(C(=O)NCC1CCOCC1)n1cc2c(N)nc3cc(-c4ccn[nH]4)ccc3c2n1 (stereo not drawn) [Example 566] | 27.6 | > 100 | > 100 | – | – | –
CC(CC(=O)NCC1CCOCC1)n1cc2c(N)nc3cc(-c4cc[nH]n4)ccc3c2n1 (stereo not drawn) [Example 624] | 19.9 | > 100 | > 100 | – | – | –

Results, then the compound that gave them:

EC50 ([1]; human cells) [µM] | EC50 ([2]; activity range) [µM] | EC50 ([3]; activity range) [µM] | EC50 ([1]; human) [µM] | EC50 ([2]; activity range class) [µM] | EC50 ([3]; activity range class) [µM] | Compound
– | – | – | 0.75 | > 100 | > 100 | COCCOCCn1cc2c(N)nc3cc(-c4cc[nH]n4)ccc3c2n1 [Example 310]
– | – | – | 0.31 | > 100 | > 100 | Nc1nc2cc(-c3cc[nH]n3)ccc2c2nn(C[C@H]3CCCO3)cc12 [Example 329]
– | – | – | 0.31 | 20 to 100 | 1 to 20 | Cc1nc(C(=O)NCCn2cc3c(n2)c(N)nc2cc(-c4cc[nH]n4)ccc23)ccc1C(F)(F)F [Example 56]
– | – | – | 0.77 | > 100 | > 100 | N#CC[C@H](O)Cn1cc2c(N)nc3cc(-c4cc[nH]n4)ccc3c2n1 [Example 380]
– | – | – | 0.49 | > 100 | > 100 | COCCn1ncc2c(N)nc3cc(-c4cc[nH]n4)ccc3c21 [Example 208, 1-(2-methoxyethyl)-7-(1H-pyrazol-3-yl)-1H-pyrazolo[4,3-c]quinolin-4-amine]
– | – | – | 2.63 | > 100 | > 100 | Nc1nc2cc(-c3cc[nH]n3)ccc2c2cn(CCNCc3ccc(Cl)cc3)nc12 [Example 107]
– | – | – | 0.22 | > 100 | > 100 | COCC(C)n1cc2c(N)nc3cc(-c4cc[nH]n4)ccc3c2n1 (single isomer, unassigned) [Example 337]
0.6 | > 100 | > 100 | – | – | – | Nc1nc2cc(-c3cc[nH]n3)ccc2c2cn(CC(=O)NCC(F)F)nc12 [Example 538]
1.58 | > 100 | > 100 | – | – | – | COCCN(C)C(=O)Cn1cc2c(n1)c(N)nc1cc(-c3cc[nH]n3)ccc12 [Example 542]
0.77 | > 100 | > 100 | – | – | – | CO[C@H](CO)Cn1cc2c(N)nc3cc(-c4cc[nH]n4)ccc3c2n1 [Example 489]
5.01 | > 100 | > 100 | – | – | – | Nc1nc2cc(-c3cc[nH]n3)ccc2c2cn(CC(=O)NCC3CCOCC3)nc12 [Example 550]
– | – | – | 4.19 | > 100 | > 100 | Cc1nc(C)c(C(=O)NCCn2cc3c(n2)c(N)nc2cc(-c4cc[nH]n4)ccc23)o1 [Example 46]
– | – | – | 1.68 | > 100 | > 100 | Nc1nc2cc(-c3cc[nH]n3)ccc2c2cn(CCNC(=O)c3cccc(F)c3)nc12 [Example 77]
– | – | – | 9.02 | > 100 | > 100 | CC(=O)N(C)CCn1cc2c(n1)c(N)nc1cc(-c3cc[nH]n3)ccc12 [Example 119, N-{2-[4-amino-7-(1H-pyrazol-3-yl)-2H-pyrazolo[3,4-c]quinolin-2-yl]ethyl}-N-methylacetamide]
– | – | – | 0.12 | > 100 | 1 to 20 | Nc1nc2cc(-c3cc[nH]n3)ccc2c2cn(CCNC(=O)c3ccc(F)c(Cl)n3)nc12 [Example 89]
– | – | – | 0.29 | > 100 | > 100 | Nc1nc2cc(-c3cc[nH]n3)ccc2c2cn(CCc3c[nH]cn3)nc12 [Example 175]
